In patent US20240327359A1, “3-ISOXAZOLIDINONE COMPOUND, PREPARATION METHOD, HERBICIDAL COMPOSITION AND APPLICATION THEREOF” (QINGDAO KINGAGROOT CHEMICAL COMPOUND CO., LTD., priority 2021, published 2024):

Experiments:
Assay type in all cases: in vivo
Cirsium setosum = test: Activity test of the compositions, post-emergence treatment by foliage spray; details: foliage (F), A 32 g a.i./mu
Digitaria sanguinalis = test: as above
Echinochloa crusgalli = test: as above; details: foliage (F), A 16 g a.i./mu
Lolium multiflorum = test: as above; details: foliage (F), A 16 g a.i./mu
[1] = tested on: Echinochloa crus-galli var. zelayensis; test: as above; details: Echinochloa crusgalli var. zelayensis; foliage (F); A 16 g a.i./mu
Amaranthus retroflexus = test: as above; details: foliage (F)
[2] = tested on: spinach, radish, Chinese cabbage, sesame, rape, cucumber, watermelon, melon, pumpkin, cassava, soybean, kidney bean, cowpea, common bean, hyacinth bean, sponge …; test: Field test, crop safety; details: applied after planting and pre-emergence at 300 g a.i./ha
Leptochloa chinensis = test: Weeding effect in pre-emergence stage; details: 2 weeks
Descurainia sophia = test: Weeding effect in pre-emergence stage; details: 2 weeks
weeds = test: Activity test of the compositions, soil sealing treatment
Summary of the method: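 Pre-emergence soil spray at 450 kg/ha, 0.3 MPa, applied 72 h after sowing pre-germinated seeds, 20 seeds per pot, 4 pots, 4 repeats; actives in acetone diluted with 0.10% Tween-80. Greenhouse, 20 to 30° C; surviving weed fresh weight measured 21 days after treatment.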

With `CC1(C)CON(Cc2ccc(Cl)cc2Br)C1=O` [Compound 1] the “Control effect (%) of A applied alone (A)” value (shortened to “Control effect (%)”) (Cirsium setosum) was 64.2%, the “Control effect (%)” value (Digitaria sanguinalis; foliage (F), A 16 g a.i./mu) was 42.3% and the “Control effect (%)” value (Digitaria sanguinalis; foliage treatment (F), A at 16 g a.i./mu, fresh weight inhibition 21 days after treatment) was 42.3%. For the same molecule, the “Control effect (%)” value (Echinochloa crusgalli) was 46.2%, the “Control effect (%)” value (Lolium multiflorum) was 56.7% and the “Control effect (%)” value [1] was 43.6%. The “Control effect (%)” value (Amaranthus retroflexus; A 8 g a.i./mu) was 36.7%, the “Control effect (%)” value (Amaranthus retroflexus; A 16 g a.i./mu) was 36.7% and the “crop safety in field test” value [2] was “safe”. For the same molecule, the “weeding effect in pre-emergence stage, activity level (growth control rate)” value (from here on “weeding effect in pre-emergence stage”) (Leptochloa chinensis; 3 g a.i./mu) was 9, the “weeding effect in pre-emergence stage” value (Leptochloa chinensis; 6 g a.i./mu) was 9 and the “weeding effect in pre-emergence stage” value (Leptochloa chinensis; 12 g a.i./mu) was 9. For the same molecule, the “weeding effect in pre-emergence stage” value (Leptochloa chinensis; 24 g a.i./mu) was 9, the “weeding effect in pre-emergence stage” value (Descurainia sophia; 3 g a.i./mu) was 7 (Level 7: growth control rate is greater than or equal to 70% and less than 80%) and the “weeding effect in pre-emergence stage” value (Descurainia sophia; 6 g a.i./mu) was 9. The “weeding effect in pre-emergence stage” value (Descurainia sophia; 12 g a.i./mu) was 9, the “weeding effect in pre-emergence stage” value (Descurainia sophia; 24 g a.i./mu) was 9 and the “Control effect (%)” value (weeds; Alopecurus japonicus, soil (S), A 8 g a.i./mu) was 39.4%. For the same molecule, the “Control effect (%)” value (weeds; Amaranthus retroflexus, soil (S), A 8 g a.i./mu) was 37.3%, the “Control effect (%)” value (weeds; Commelina communis, soil (S), A 8 g a.i./mu) was 44.1% and the “Control effect (%)” value (weeds; Cyperus difformis, soil (S), A 8 g a.i./mu) was 34.5%. For the same molecule, the “Control effect (%)” value (weeds; Digitaria sanguinalis, soil (S), A 8 g a.i./mu) was 40.3%, the “Control effect (%)” value (weeds; Echinochloa crusgalli, soil (S), A 8 g a.i./mu) was 50.7% and the “Control effect (%)” value (weeds; Echinochloa crusgalli, soil treatment (S), A at 8 g a.i./mu, fresh weight inhibition 21 days after treatment) was 50.7%. The “Control effect (%)” value (weeds; Galium aparine, soil (S), A 8 g a.i./mu) was 37.2%, the “Control effect (%)” value (weeds; Lolium multiflorum, soil (S), A 8 g a.i./mu) was 53.2% and the “Control effect (%)” value (weeds; Potamogeton distinctus, soil (S), A 8 g a.i./mu) was 35.9%. The “Control effect (%)” value (weeds; Veronica didyma, soil (S), A 8 g a.i./mu) was 48.9%.
